Reference: ChEMBL document CHEMBL1137480, “Synthesis and structure-activity relationship of 7-(substituted)-aminomethyl-4-quinolone-3-carboxylic acid derivatives” (2007)
Values after ≈ are worked out from the molar mass of the structure shown.

Key:
Type in all cases: functional
Klebsiella pneumoniae = test: Antibacterial activity against Klebsiella pneumoniae 46101 after 24 hrs by agar dilution method
Staphylococcus aureus = test: Antibacterial activity against Staphylococcus aureus 26003 after 24 hrs by agar dilution method
Salmonella = test: Antibacterial activity against […] 48107 after 24 hrs by agar dilution method
Streptococcus pneumoniae = test: Antibacterial activity against Streptococcus pneumoniae 31002 after 24 hrs by agar dilution method
Shigella boydii = test: Antibacterial activity against Shigella boydii 51313 after 24 hrs by agar dilution method
[1] = test system: Staphylococcus epidermidis; test: Antibacterial activity against Staphylococcus epidermidis 26069 after 24 hrs by agar dilution method

## O=C(O)c1cn(C2CC2)c2c(F)c(CNc3cccc(Cl)c3)c(F)cc2c1=O
Klebsiella pneumoniae
  MIC: 1.56 µg/mL (≈ 3.85 µM)
Staphylococcus aureus
  MIC: 0.195 µg/mL (≈ 0.482 µM)
Salmonella
  MIC: 1.56 µg/mL (≈ 3.85 µM)
Streptococcus pneumoniae
  MIC: ≤ 0.049 µg/mL
Shigella boydii
  MIC: 0.78 µg/mL (≈ 1.93 µM)
[1]
  MIC: 1.56 µg/mL (≈ 3.85 µM)

## CN1CCN(Cc2c(F)cc3c(=O)c(C(=O)O)cn(C4CC4)c3c2F)CC1
Klebsiella pneumoniae
  MIC: 1.56 µg/mL (≈ 4.13 µM)
Staphylococcus aureus
  MIC: 12.5 µg/mL (≈ 33.1 µM)
Salmonella
  MIC: 1.56 µg/mL (≈ 4.13 µM)
Streptococcus pneumoniae
  MIC: 1.56 µg/mL (≈ 4.13 µM)
Shigella boydii
  MIC: 1.56 µg/mL (≈ 4.13 µM)
[1]
  MIC: 12.5 µg/mL (≈ 33.1 µM)

## O=C(O)c1cn(C2CC2)c2c(F)c(CNC3CC3)c(F)cc2c1=O
Klebsiella pneumoniae
  MIC: ≤ 0.049 µg/mL
Staphylococcus aureus
  MIC: 3.13 µg/mL (≈ 9.36 µM)
Salmonella
  MIC: 0.098 µg/mL (≈ 0.293 µM)
Streptococcus pneumoniae
  MIC: 0.195 µg/mL (≈ 0.583 µM)
Shigella boydii
  MIC: 0.098 µg/mL (≈ 0.293 µM)
[1]
  MIC: 6.25 µg/mL (≈ 18.7 µM)

## CCCNCc1c(F)cc2c(=O)c(C(=O)O)cn(C3CC3)c2c1F
Klebsiella pneumoniae
  MIC: 0.39 µg/mL (≈ 1.16 µM)
Staphylococcus aureus
  MIC: > 6.25 µg/mL
Salmonella
  MIC: 0.098 µg/mL (≈ 0.291 µM)
Streptococcus pneumoniae
  MIC: 3.13 µg/mL (≈ 9.31 µM)
Shigella boydii
  MIC: 0.195 µg/mL (≈ 0.58 µM)
[1]
  MIC: > 6.25 µg/mL

## O=C(O)c1cn(C2CC2)c2c(F)c(CN3CCNCC3)c(F)cc2c1=O
Klebsiella pneumoniae
  MIC: 0.195 µg/mL (≈ 0.537 µM)
Staphylococcus aureus
  MIC: 6.25 µg/mL (≈ 17.2 µM)
Salmonella
  MIC: 0.195 µg/mL (≈ 0.537 µM)
Streptococcus pneumoniae
  MIC: 6.25 µg/mL (≈ 17.2 µM)
Shigella boydii
  MIC: 0.78 µg/mL (≈ 2.15 µM)
[1]
  MIC: 6.25 µg/mL (≈ 17.2 µM)

## O=C(O)c1cn(C2CC2)c2c(F)c(CNc3ccc(F)cc3)c(F)cc2c1=O
Klebsiella pneumoniae
  MIC: 0.78 µg/mL (≈ 2.01 µM)
Staphylococcus aureus
  MIC: 0.78 µg/mL (≈ 2.01 µM)
Salmonella
  MIC: 0.39 µg/mL (≈ 1 µM)
Streptococcus pneumoniae
  MIC: 0.049 µg/mL (≈ 0.126 µM)
Shigella boydii
  MIC: 0.195 µg/mL (≈ 0.502 µM)
[1]
  MIC: 1.56 µg/mL (≈ 4.02 µM)

## O=C(O)c1cn(C2CC2)c2c(F)c(CNc3ccc(F)c(Cl)c3)c(F)cc2c1=O
Klebsiella pneumoniae
  MIC: 1.56 µg/mL (≈ 3.69 µM)
Staphylococcus aureus
  MIC: 0.39 µg/mL (≈ 0.922 µM)
Salmonella
  MIC: 0.78 µg/mL (≈ 1.84 µM)
Streptococcus pneumoniae
  MIC: 0.39 µg/mL (≈ 0.922 µM)
Shigella boydii
  MIC: 1.56 µg/mL (≈ 3.69 µM)
[1]
  MIC: 1.56 µg/mL (≈ 3.69 µM)

## Cc1ccc(NCc2c(F)cc3c(=O)c(C(=O)O)cn(C4CC4)c3c2F)cc1
Klebsiella pneumoniae
  MIC: 1.56 µg/mL (≈ 4.06 µM)
Staphylococcus aureus
  MIC: 0.39 µg/mL (≈ 1.01 µM)
Salmonella
  MIC: 0.78 µg/mL (≈ 2.03 µM)
Streptococcus pneumoniae
  MIC: 0.049 µg/mL (≈ 0.127 µM)
Shigella boydii
  MIC: 0.39 µg/mL (≈ 1.01 µM)
[1]
  MIC: 1.56 µg/mL (≈ 4.06 µM)

## CCNCc1c(F)cc2c(=O)c(C(=O)O)cn(C3CC3)c2c1F
Klebsiella pneumoniae
  MIC: ≤ 0.049 µg/mL
Staphylococcus aureus
  MIC: > 6.25 µg/mL
Salmonella
  MIC: 0.195 µg/mL (≈ 0.605 µM)
Streptococcus pneumoniae
  MIC: 0.78 µg/mL (≈ 2.42 µM)
Shigella boydii
  MIC: ≤ 0.049 µg/mL
[1]
  MIC: > 6.25 µg/mL

## O=C(O)c1cn(C2CC2)c2c(F)c(CNc3ccc(Cl)cc3)c(F)cc2c1=O
Klebsiella pneumoniae
  MIC: 1.56 µg/mL (≈ 3.85 µM)
Staphylococcus aureus
  MIC: 0.39 µg/mL (≈ 0.963 µM)
Salmonella
  MIC: 1.56 µg/mL (≈ 3.85 µM)
Streptococcus pneumoniae
  MIC: ≤ 0.049 µg/mL
Shigella boydii
  MIC: 1.56 µg/mL (≈ 3.85 µM)
[1]
  MIC: 1.56 µg/mL (≈ 3.85 µM)

## Cc1cc(C)nc(NCc2c(F)cc3c(=O)c(C(=O)O)cn(C4CC4)c3c2F)c1
Klebsiella pneumoniae
  MIC: 0.78 µg/mL (≈ 1.95 µM)
Staphylococcus aureus
  MIC: 0.39 µg/mL (≈ 0.976 µM)
Salmonella
  MIC: 0.78 µg/mL (≈ 1.95 µM)
Streptococcus pneumoniae
  MIC: 0.098 µg/mL (≈ 0.245 µM)
Shigella boydii
  MIC: 0.39 µg/mL (≈ 0.976 µM)
[1]
  MIC: 1.56 µg/mL (≈ 3.91 µM)

## Cc1ccc(NCc2c(F)cc3c(=O)c(C(=O)O)cn(C4CC4)c3c2F)cc1C
Klebsiella pneumoniae
  MIC: 1.56 µg/mL (≈ 3.92 µM)
Staphylococcus aureus
  MIC: 0.39 µg/mL (≈ 0.979 µM)
Salmonella
  MIC: 1.56 µg/mL (≈ 3.92 µM)
Streptococcus pneumoniae
  MIC: 0.098 µg/mL (≈ 0.246 µM)
Shigella boydii
  MIC: 1.56 µg/mL (≈ 3.92 µM)
[1]
  MIC: 0.78 µg/mL (≈ 1.96 µM)

## O=C(O)c1cn(C2CC2)c2c(F)c(CNc3ccccc3)c(F)cc2c1=O
Klebsiella pneumoniae
  MIC: 0.78 µg/mL (≈ 2.11 µM)
Staphylococcus aureus
  MIC: 0.78 µg/mL (≈ 2.11 µM)
Salmonella
  MIC: 0.39 µg/mL (≈ 1.05 µM)
Streptococcus pneumoniae
  MIC: 0.049 µg/mL (≈ 0.132 µM)
Shigella boydii
  MIC: 0.39 µg/mL (≈ 1.05 µM)
[1]
  MIC: 1.56 µg/mL (≈ 4.21 µM)

## CCCCNCc1c(F)cc2c(=O)c(C(=O)O)cn(C3CC3)c2c1F
Klebsiella pneumoniae
  MIC: ≤ 0.049 µg/mL
Staphylococcus aureus
  MIC: > 6.25 µg/mL
Salmonella
  MIC: 0.195 µg/mL (≈ 0.557 µM)
Streptococcus pneumoniae
  MIC: 3.13 µg/mL (≈ 8.93 µM)
Shigella boydii
  MIC: 0.39 µg/mL (≈ 1.11 µM)
[1]
  MIC: > 6.25 µg/mL

## CC(C)CNCc1c(F)cc2c(=O)c(C(=O)O)cn(C3CC3)c2c1F
Klebsiella pneumoniae
  MIC: 0.098 µg/mL (≈ 0.28 µM)
Staphylococcus aureus
  MIC: > 6.25 µg/mL
Salmonella
  MIC: ≤ 0.049 µg/mL
Streptococcus pneumoniae
  MIC: 1.56 µg/mL (≈ 4.45 µM)
Shigella boydii
  MIC: 0.195 µg/mL (≈ 0.557 µM)
[1]
  MIC: > 6.25 µg/mL

## O=C(O)c1cn(C2CC2)c2c(F)c(CNC3CCCCC3)c(F)cc2c1=O
Klebsiella pneumoniae
  MIC: 0.195 µg/mL (≈ 0.518 µM)
Staphylococcus aureus
  MIC: > 6.25 µg/mL
Salmonella
  MIC: 0.195 µg/mL (≈ 0.518 µM)
Streptococcus pneumoniae
  MIC: 1.56 µg/mL (≈ 4.14 µM)
Shigella boydii
  MIC: 0.78 µg/mL (≈ 2.07 µM)
[1]
  MIC: 6.25 µg/mL (≈ 16.6 µM)

## O=C(O)c1cn(C2CC2)c2c(F)c(Cn3ccnc3)c(F)cc2c1=O
Klebsiella pneumoniae
  MIC: 0.195 µg/mL (≈ 0.565 µM)
Staphylococcus aureus
  MIC: 6.25 µg/mL (≈ 18.1 µM)
Salmonella
  MIC: 0.195 µg/mL (≈ 0.565 µM)
Streptococcus pneumoniae
  MIC: 0.78 µg/mL (≈ 2.26 µM)
Shigella boydii
  MIC: 0.39 µg/mL (≈ 1.13 µM)
[1]
  MIC: > 6.25 µg/mL

## CCN(Cc1c(F)cc2c(=O)c(C(=O)O)cn(C3CC3)c2c1F)c1ccccc1
Klebsiella pneumoniae
  MIC: 6.25 µg/mL (≈ 15.7 µM)
Staphylococcus aureus
  MIC: 3.13 µg/mL (≈ 7.86 µM)
Salmonella
  MIC: 3.13 µg/mL (≈ 7.86 µM)
Streptococcus pneumoniae
  MIC: 3.13 µg/mL (≈ 7.86 µM)
Shigella boydii
  MIC: 3.13 µg/mL (≈ 7.86 µM)
[1]
  MIC: 6.25 µg/mL (≈ 15.7 µM)

## CCn1cc(C(=O)O)c(=O)c2cc(F)c(CNC)c(F)c21
Klebsiella pneumoniae
  MIC: 0.195 µg/mL (≈ 0.658 µM)
Staphylococcus aureus
  MIC: > 6.25 µg/mL
Salmonella
  MIC: 0.39 µg/mL (≈ 1.32 µM)
Streptococcus pneumoniae
  MIC: 3.13 µg/mL (≈ 10.6 µM)
Shigella boydii
  MIC: 0.39 µg/mL (≈ 1.32 µM)
[1]
  MIC: > 6.25 µg/mL

## CCNCc1c(F)cc2c(=O)c(C(=O)O)cn(CC)c2c1F
Klebsiella pneumoniae
  MIC: 0.195 µg/mL (≈ 0.628 µM)
Staphylococcus aureus
  MIC: > 6.25 µg/mL
Salmonella
  MIC: 0.39 µg/mL (≈ 1.26 µM)
Streptococcus pneumoniae
  MIC: 3.13 µg/mL (≈ 10.1 µM)
Shigella boydii
  MIC: 0.39 µg/mL (≈ 1.26 µM)
[1]
  MIC: > 6.25 µg/mL

## CCNCc1c(F)cc2c(=O)c(C(=O)O)cn3c2c1OC[C@@H]3C
Klebsiella pneumoniae
  MIC: 0.049 µg/mL (≈ 0.153 µM)
Staphylococcus aureus
  MIC: > 6.25 µg/mL
Salmonella
  MIC: 0.195 µg/mL (≈ 0.609 µM)
Streptococcus pneumoniae
  MIC: 1.56 µg/mL (≈ 4.87 µM)
Shigella boydii
  MIC: 0.195 µg/mL (≈ 0.609 µM)
[1]
  MIC: > 6.05 µg/mL

## CCCNCc1c(F)cc2c(=O)c(C(=O)O)cn3c2c1OC[C@@H]3C
Klebsiella pneumoniae
  MIC: 0.195 µg/mL (≈ 0.583 µM)
Staphylococcus aureus
  MIC: > 6.25 µg/mL
Salmonella
  MIC: 0.39 µg/mL (≈ 1.17 µM)
Streptococcus pneumoniae
  MIC: 3.13 µg/mL (≈ 9.36 µM)
Shigella boydii
  MIC: 0.39 µg/mL (≈ 1.17 µM)
[1]
  MIC: > 6.25 µg/mL
